The record followed here is ChEMBL document CHEMBL3217442, “Synthesis and bioevaluation of aryl hydroxamates distinguishing between NAD+ and ATP-dependent DNA ligases” (Medchemcomm, 2012).

The structures appear in SMILES notation. Converted amounts (≈) assume the structure as drawn. The source made the active and inactive calls. The calls are words filed in the database; no cut-off is given here.

The first test deals with Escherichia coli. Description: microbe, parasite or virus in culture. The class given is functional. To be noted: GR501, 20 h.
Compound `C=CCOc1ccccc1C(=O)NO` yielded an MIC of 0.5 µg/mL (≈ 2.59 µM).

The compound `O=C(NO)c1ccccc1OCC(O)Cn1cc(-c2ccccc2)nn1` (centres undefined) returned an MIC of 1 µg/mL (≈ 2.82 µM).

Another test relates to Escherichia coli. Briefly: microbe, parasite or virus in culture. The conditions noted are these: GR501, 20 h. The class given is functional. This is another data set of the same source.
The compound `C=CCOc1ccc(OCc2ccccc2)cc1C(=O)NO` had an MIC of 800 µg/mL (≈ 2670 µM).

The compound `C=CCOc1ccc(OCc2ccc(Br)cc2)cc1C(=O)NO` displayed an MIC of 800 µg/mL (≈ 2120 µM).

`C=CCOc1ccc(OCc2cc(Cl)ccc2Cl)cc1C(=O)NO` had an MIC of 400 µg/mL (≈ 1090 µM).

In the case of `C#CCOc1ccc(OCC=C)c(C(=O)NO)c1`, the MIC was 400 µg/mL (≈ 1620 µM).

`C=CCOc1cc(OCc2ccc(Br)cc2)ccc1C(=O)NO` came in with an MIC of 800 µg/mL (≈ 2120 µM).

The compound `C=CCOc1ccccc1C(=O)NO` gave an MIC of 10 µg/mL (≈ 51.8 µM).

The compound `O=C(NO)c1ccccc1OCC(O)Cn1cc(-c2ccccc2)nn1` (centres undefined) showed an MIC of 18 µg/mL (≈ 50.8 µM).

`C=CCOc1ccc(OCC=C)c(C(=O)NO)c1` yielded an MIC of 150 µg/mL (≈ 602 µM).

`O=C(NO)c1ccc2ccccc2c1OCc1ccc(Cl)c(Cl)c1` gave an MIC of over 200 µg/mL.

In turn, `C=CCOc1ccc(C(=O)NO)c(OCC=C)c1` registered an MIC of 400 µg/mL (≈ 1600 µM).

Compound `CCCCCCOc1c(C(=O)NO)ccc2ccccc12` came in with an MIC of over 200 µg/mL.

For another test, the system named is Escherichia coli.
Assay: not given
Details: not given
Turning to `C=CCOc1cc(OCc2cc(Cl)ccc2Cl)ccc1C(=O)NO`, the MIC result is “inactive”.

`C=CCOc1c(OCc2ccccc2)cccc1C(=O)NO`: the MIC entry was “inactive”.

Regarding `O=C(NO)c1ccc2ccccc2c1OCc1cccc(Cl)c1`, the MIC result is “inactive”.

On to `O=C(NO)c1ccccc1OCc1cccc(Cl)c1`, for which the MIC entry is “inactive”.

Consider `C=CCOc1cccc(C(=O)NO)c1OCC=C`, for which the MIC entry was “inactive”.

As to `O=C(NO)c1ccccc1OCc1ccc(Cl)c(Cl)c1`, the MIC result is “inactive”.
